Source: patent US5604242A, “Heterocyclic chemistry” (Novo Nordisk A/S, priority 1993, dated 1997)
Structures can show the parent of a compound that is named as a salt.

Test system: GABA uptake
Assay: not given
Settings: Yunger et al., J.Pharm.Exp.Ther. 1984, 228, 109; cited from earlier work

Structure (SMILES)	oral activity as inhibitor of GABA uptake
O=C(O)C1CCCN(CCC=C(c2ccccc2)c2cccs2)C1 (stereo not drawn) [SK&F 100604J, N-(4-phenyl-4-(2-thienyl)-3-buten-1-yl)nipecotic acid]	orally active inhibitors of GABA uptake
O=C(O)CC1CCN(CCC=C(c2ccccc2)c2ccccc2)C1 (stereo not drawn) [SK&F 100561, N-(4,4-diphenyl-3-buten-1-yl)-homo-β-proline]	orally active inhibitors of GABA uptake
O=C(O)C1=CCCN(CCC=C(c2ccccc2)c2ccccc2)C1 [SK&F 100330A, N-(4,4-diphenyl-3-buten-1-yl)guvacine]	orally active inhibitors of GABA uptake
O=C(O)C1CCCN(CCC=C(c2ccccc2)c2ccccc2)C1 (stereo not drawn) [SK&F 89976A, N-(4,4-diphenyl-3-buten-1-yl)nipecotic acid]	orally active inhibitors of GABA uptake

Same assay, conditions: background, in words; cited from earlier work

Structure (SMILES)	inhibition of GABA uptake from the synaptic cleft into presynaptic nerve terminals and glial cells
O=C(O)C1CCCNC1 (stereo not drawn) [nipecotic acid, 3-piperidinecarboxylic acid]	well-known and potent inhibitor of GABA uptake

Test system: [^3 H]-GABA uptake
Assay: in vitro inhibition of [3H]-GABA uptake (method of Fjalland), rat cortical tissue homogenate
Format: biochemical, Male wistar rat
Settings: 40 mM tris HCl buffer pH 7.5, 60 minutes at 30° C.
Procedure: Values for in vitro inhibition of [^3 H]-GABA uptake for the invention compounds were assessed essentially by the method of Fjalland (Acta Pharmacol. Toxicol. 1978, 42, 73-76). Male wistar rat cortical tissue was gently homogenized by hand using a glass/PTFE homogenizer in 10 volumes of 0.32M sucrose. Incubation was performed in a 40 mM tris HCl buffer (pH 7.5 at 30° C.) containing […], 4 mM MgSO4, […] and 10 mM glucose, for 60 minutes at 30° C. Values for inhibition of GABA uptake for some representative compounds are recorded in Table I.

IC50	Structure (SMILES)
325 nM	O=C(O)[C@@H]1CCCN(CCOCc2ccccc2Cc2ccccc2)C1 [Example 2, (R)-1-(2-(2-Benzylbenzyloxy)ethyl)-3-piperidinecarboxylic acid hydrochloride]
6400 nM	O=C(O)[C@@H]1CCCN(CCOCc2ccc3ccccc3c2-c2ccccc2)C1 [Example 3, (R)-1-(2-((1-Phenyl-2-naphthyl)methoxy)ethyl)-3-piperidinecarboxylic acid hydrochloride]
338 nM	O=C(O)[C@@H]1CCCN(CCOCc2ccccc2-c2ccccc2)C1 [Example 4, (R)-1-(2-(2-Phenylbenzyloxy)ethyl)-3-piperidinecarboxylic acid hydrochloride]
2000 nM	O=C(O)[C@@H]1CCCN(CCOC/C(=C\c2ccccc2)c2ccccc2)C1 [Example 6, Z-(R)-1-(2-((2,3-Diphenyl-2-propen-1-yl)oxy)ethyl)-3-piperidinecarboxylic acid hydrochloride]
495 nM	O=C(O)[C@@H]1CCCN(CCOC/C(=C/c2ccccc2)c2ccccc2)C1 [Example 5, E-(R)-1-(2-((2,3-Diphenyl-2-propen-1-yl)oxy)ethyl)-3-piperidinecarboxylic acid hydrochloride]
4500 nM	O=C(O)C1CCCN(CCOCCCc2ccccc2)C1 (stereo not drawn) [Example 1, 1-(2-(3-Phenyl-1-propyloxy)ethyl)-3-piperidinecarboxylic acid hydrochloride]

Test system: not given
Assay: not given
Settings: background, in words; cited from earlier work

Structure (SMILES)	ability to cross the blood-brain barrier
O=C(O)C1CCCNC1 (stereo not drawn) [nipecotic acid, 3-piperidinecarboxylic acid]	unable to cross the blood-brain barrier
